According to the supplement of paper PMC10307832:

Assays:
Assay in all cases: relative viability (nuclei count vs DMSO), 5 days (fraction); higher = more cells survive
[1] = compound: C=CCNC1=C2C[C@@H](C)C[C@H](OC)[C@H](O)[C@@H](C)/C=C(\C)[C@H](OC(N)=O)[C@@H](OC)/C=C\C=C(/C)C(=O)NC(=CC1=O)C2=O [17-AAG]
Procedure, shortened: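 Five library-drug doses spaced by √10 were pinned onto vehicle-anchored 1536-well plates of lung cancer cell lines that had been kept overnight at 37 °C. Cells went 5 days without medium change, then were fixed, permeabilised and Hoechst-stained together, imaged at 4× and counted by MetaXpress. Viability is the ratio of treated-well to vehicle-well nuclei, taken as a median over plates. Plates required control CV below 25% and at least one doubling.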

[2] = compound: C=CCNC1=C2C[C@@H](C)C[C@H](OC)[C@H](O)[C@@H](C)/C=C(\C)[C@H](OC(N)=O)[C@@H](OC)/C=C\C=C(/C)C(=O)NC(=CC1=O)C2=O [17-AAG] + CC1(C)CCC(c2ccc(Cl)cc2)=C(CN2CCN(c3ccc(C(=O)NS(=O)(=O)c4ccc(N[C@H](CCN5CCOCC5)CSc5ccccc5)c(S(=O)(=O)C(F)(F)F)c4)cc3)CC2)C1 [Navitoclax] (partner 0.5 µM)
Procedure, shortened: (§1)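 Values are medians from duplicate plates. Each reflects relative viability, defined as the nuclei count of treated wells over that of vehicle wells. Lung cancer cell lines in 1536-well plates were pin-tool dosed one day after seeding with one drug alone or with a fixed anchor-drug dose plus five library-drug doses (not always all listed) in √10 steps, then fixed, stained and imaged at 4× after 5 days.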

[3] = compound: C=CCNC1=C2C[C@@H](C)C[C@H](OC)[C@H](O)[C@@H](C)/C=C(\C)[C@H](OC(N)=O)[C@@H](OC)/C=C\C=C(/C)C(=O)NC(=CC1=O)C2=O [17-AAG] + Cc1cc(Nc2cc(N3CCN(C)CC3)nc(Sc3ccc(NC(=O)C4CC4)cc3)n2)n[nH]1 [Tozasertib] (partner 0.1 µM)
Procedure, shortened: as §1

[4] = compound: C=CCNC1=C2C[C@@H](C)C[C@H](OC)[C@H](O)[C@@H](C)/C=C(\C)[C@H](OC(N)=O)[C@@H](OC)/C=C\C=C(/C)C(=O)NC(=CC1=O)C2=O [17-AAG] + N=C(N)NC(=N)NCCc1ccccc1 [Phenformin] (partner 250 µM)
Procedure, shortened: as §1

Cell Line | relative viability ([1]; 0.00128 µM) | relative viability ([1]; 0.004048 µM) | relative viability ([1]; 0.0128 µM) | relative viability ([1]; 0.04048 µM) | relative viability ([1]; 0.128 µM) | relative viability ([2]; first compound 0.00128 µM) | relative viability ([2]; first compound 0.004048 µM) | relative viability ([2]; first compound 0.0128 µM) | relative viability ([2]; first compound 0.04048 µM) | relative viability ([2]; first compound 0.128 µM) | relative viability ([3]; first compound 0.00128 µM) | relative viability ([3]; first compound 0.004048 µM) | relative viability ([3]; first compound 0.0128 µM) | relative viability ([3]; first compound 0.04048 µM) | relative viability ([3]; first compound 0.128 µM) | relative viability ([4]; first compound 0.00128 µM) | relative viability ([4]; first compound 0.004048 µM) | relative viability ([4]; first compound 0.0128 µM) | relative viability ([4]; first compound 0.04048 µM) | relative viability ([4]; first compound 0.128 µM)
NCI-H2087 | 0.984 | 0.767 | 0.16 | 0.177 | 0.134 | 0.96 | 0.754 | 0.284 | 0.202 | 0.195 | 0.306 | 0.228 | 0.208 | 0.148 | 0.1 | 0.394 | 0.232 | 0.138 | 0.125 | 0.105
NCI-H2126 | 1.01 | 0.995 | 0.957 | 0.435 | 0.26 | 0.864 | 0.845 | 0.878 | 0.796 | 0.381 | 0.9 | 0.842 | 0.44 | 0.26 | 0.298 | 0.576 | 0.563 | 0.305 | 0.289 | 0.271
NCI-H2170 | 1.01 | 0.973 | 0.605 | 0.178 | 0.168 | 0.649 | 0.578 | 0.548 | 0.251 | 0.167 | 0.739 | 0.77 | 0.65 | 0.327 | 0.173 | 0.408 | 0.453 | 0.297 | 0.163 | 0.135
NCI-H2228 | 1.08 | 0.72 | 0.125 | 0.112 | 0.152 | 0.893 | 0.486 | 0.146 | 0.168 | 0.112 | 0.301 | 0.151 | 0.105 | 0.131 | 0.128 | 0.337 | 0.185 | 0.0958 | 0.099 | 0.0688
NCI-H2347 | 0.958 | 0.998 | 1.13 | 0.557 | 0.385 | 0.908 | 0.737 | 0.74 | 0.441 | 0.245 | 0.564 | 0.518 | 0.507 | 0.278 | 0.303 | 0.466 | 0.38 | 0.275 | 0.187 | 0.191
NCI-H2405 | 1.02 | 0.957 | 0.663 | 0.251 | 0.236 | 0.98 | 0.71 | 0.231 | 0.271 | 0.165 | 0.776 | 0.765 | 0.451 | 0.28 | 0.156 | 0.398 | 0.383 | 0.33 | 0.209 | 0.185
NCI-H3122 | 0.99 | 0.867 | 0.29 | 0.155 | 0.134 | 1.02 | 1.02 | 0.949 | 0.194 | 0.159 | 0.473 | 0.187 | 0.0915 | 0.104 | 0.0922 | 0.396 | 0.329 | 0.129 | 0.118 | 0.117
PC-3 [JPC-3] | 1.01 | 1.06 | 1.01 | – | 0.873 | 0.794 | 0.82 | 0.835 | – | 0.793 | 0.894 | 0.847 | 0.922 | – | 0.839 | 0.481 | 0.472 | 0.485 | – | 0.468
PC-14 | 0.967 | 0.742 | 0.398 | 0.108 | 0.0843 | 1.04 | 1.02 | 1.02 | 0.118 | 0.0935 | 0.55 | 0.472 | 0.27 | 0.067 | 0.0544 | 0.449 | 0.44 | 0.126 | 0.123 | 0.109
RERF-LC-KJ | 1.03 | 1.05 | 0.669 | 0.284 | 0.26 | 1.09 | 0.747 | 0.712 | 0.254 | 0.234 | 0.551 | 0.754 | 0.293 | 0.275 | 0.257 | 0.535 | 0.489 | 0.321 | 0.268 | 0.27
SK-LU-1 | 1.06 | 0.796 | 0.315 | 0.229 | 0.181 | 0.818 | 0.164 | 0.135 | 0.152 | 0.136 | 0.426 | 0.243 | 0.128 | 0.152 | 0.139 | 0.484 | 0.214 | 0.119 | 0.116 | 0.0908
SK-MES-1 | 0.966 | 0.86 | 0.45 | 0.181 | 0.159 | 1.17 | 1.12 | 0.951 | 0.162 | 0.131 | 0.872 | 0.851 | 0.168 | 0.164 | 0.143 | 0.697 | 0.561 | 0.389 | 0.202 | 0.194
SW 1573 | 0.973 | 0.95 | 0.542 | 0.151 | 0.104 | 0.704 | 0.955 | 0.74 | 0.142 | 0.0734 | 0.234 | 0.254 | 0.117 | 0.104 | 0.0907 | 0.34 | 0.257 | 0.123 | 0.145 | 0.1
UMC-11 | 0.943 | 1.01 | 0.839 | 0.478 | 0.195 | 0.363 | 0.37 | 0.304 | 0.17 | 0.138 | 0.222 | 0.219 | 0.225 | 0.217 | 0.222 | 0.297 | 0.292 | 0.249 | 0.223 | 0.19
